Results from patent publication US9198420B2, “Rodenticidal norbormide analogues” (priority 2012, dated 2015).
Where two headings read alike, the source gives them in different places. Marks after values point to notes of the source that are not given here.

Legend:
rat caudal artery = assay: Rat caudal artery ring contractile force (vasoconstrictory activity); parameters: species or system rat (male Wistar); conditions: for Emax: Table 1, read-out: Vasoconstriction: maximum contractile effect as a % of 90 mM KCl contraction
Method in brief: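 Endothelium-denuded caudal artery rings from male Wistar rats were held at 2 g resting tension in Tyrode solution (37° C, pH 7.35, 95% O2/CO2) and isometric force was recorded. Compounds were tested at 50 μM, with contraction expressed as percent of the 90 mM KCl response.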

Sprague Dawley rats [1] = assay: Palatability (choice) trial, peanut butter bait; format: in vivo, rat (Sprague Dawley); conditions: 2 days
Sprague Dawley rats [2] = assay: Palatability (no-choice) trial, peanut butter bait; format: in vivo, rat (Sprague Dawley); conditions: 1% w/w toxicant in peanut butter bait; for mortality at 1 %: po
Excerpt: In the palatability trials, Sprague Dawley rats (ca. 250 g) were presented with 1% w/w compound (n=6) or 0.5% w/w compound (n=5) in a peanut butter bait, following 3 days ‘pre-baiting’ with a peanut butter formulation free of toxicant.

Sprague Dawley rats [3] = assay: In vivo lethality, oral gavage; parameters: species or system rat (Sprague Dawley); conditions: rat; for Time to Death (min) / Onset of Symptoms: mean time; for Onset of Symptoms: visual signs of distress consistent with NRB-like symptoms; for In vivo lethality (oral): n = 2
Method in brief: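 Sprague Dawley rats (150-200 g) received compound dissolved in 0.2 M HCl (5% DMSO overall) at the desired dose, by oral gavage or tail-vein i.v. injection. Animals were watched for early toxicity signs every minute (i.v.) or every 15 min (oral).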

Sprague Dawley rats [4] = assay: In vivo lethality, intravenous injection via the tail; parameters: species or system rat (Sprague Dawley); conditions: 20 mg/Kg, rat, n = 2
Protocol: Sprague Dawley rats (150-200 g) were used to appraise the rodenticidal activity of the compounds put forward for in vivo evaluation. Briefly, prior to administration the compounds were dissolved in 0.2 M hydrochloric acid (5% DMSO overall), to the desired dose, and without delay either injected intravenously, via the tail, or orally gavaged. All treated animals were housed in a quiet room and monitored every minute (i.v) or every 15 min (oral) to verify early signs of toxicity.

[5] = Simulated gastric fluid (SGF) hydrolytic stability assay; format: physicochemical; conditions: footnote c: compounds not exhibiting vasoconstriction; simulated gastric fluid without pepsin, pH 1.2, 37° C., 1 h, n = 3
Protocol: All in vivo candidates were subjected to a 1 h hydrolytic stability appraisal in the presence of SGF, without pepsin (United States Pharmacopoeia 24) [200 μL total volume, sodium chloride solution (0.03 M) acidified to pH 1.2 with concentrated hydrochloric acid, at a final compound concentration of 200 μM, 2.5% DMSO overall, 37° C., n=3], to investigate any potential chemical instabilities that may occur in the acidic environment of the stomach prior to uptake. Analysis was by RP-LCMS at an injection volume of 5 μL.

[6] = Rat serum assay (release of NRB or NRB analogue); format: in vitro ADME; conditions: 80% rat serum, 37° C., 3 h, n = 3
Protocol: The hydrolytic stability of compounds of the invention in rat blood was evaluated using in vitro rat serum obtained from Sigma-Aldrich and stored at −78° C. Similar assay conditions to those reported by Li Di and co-workers (Int. J. Pharm. 2005, 297, 110-119) were followed [200 μL total volume, 80% rat serum (diluting with phosphate buffer (0.1 M, pH 7.4)), at a final compound concentration of 200 μM, 2.5% DMSO overall, 37° C., 3 h, n=3] using an Eppendorf Thermomixer Compact. Reactions were quenched by transferring 150 μL of the incubation mixture to 450 μL of ice-cold acetonitrile, affording a final compound/NRB or NRB analogue concentration of 50 μM. Samples were centrifuged at 14,500×g for 15 min using an Eppendorf Mini Spin Plus centrifuge, at ambient temperature. 400 μL of the supernatant was removed and transferred to clean tubes. Analysis was by RP-LCMS at an injection volume of 20 μL. Each compound and corresponding NRB or NRB analogue were subjected to external calibration curves at 50 μM, 100 μM and 200 μM to allow conversion of absorbance unit area into nmol, from which the percentage of NRB or NRB analogue released from each compound was calculated.

[7] = choice of EPA diet (20 g) and bait with 1% w/w toxicant (20 g), n = 2, Table 15
[8] = choice of EPA diet (20 g) and bait with 1% w/w toxicant (20 g), n = 12, Table 14
[9] = choice of standard lab pellets (20 g) and bait with 1% w/w toxicant (20 g), n = 12, Table 13
[10] = n = 6, 3 male and 3 female rats, Table 11, read-out: No of deaths (converted)

| Structure (SMILES) | Emax (rat caudal artery) [%] | No of deaths (Sprague Dawley rats [1]; [7]) | Vasoconstriction: maximum contractile effect as a % of 90 mM KCl contraction (rat caudal artery; Table 4, pre-cleavage, n = 3) | Time to Death (min) (Sprague Dawley rats [3]; 20 mg/Kg) | Onset of Symptoms (Sprague Dawley rats [3]; 20 mg/Kg) [min] | In vivo lethality (oral) (Sprague Dawley rats [3]; 40 mg/Kg) | melting point [°C] | further results |
| --- | --- | --- | --- | --- | --- | --- | --- | --- |
| O=C1NC(=O)C2C3C(C(O)(c4ccccc4)c4ccccn4)=CC(C3=C(c3ccccc3)c3ccccn3)C12 (stereo not drawn) [NRB, 5-(α-Hydroxy-α-2-pyridylbenzyl)-7-(α-2-pyridylbenzylidene)-5-norbornene-2,3-dicarboximide, reference compound] | 132 | 5/12 |  |  |  |  |  | Vasoconstriction: maximum contractile effect as a % of 90 mM KCl contraction (rat caudal artery; Table 5, compounds of formula (III)): ^aMaximum contractile effect as a % of 90 mM KCl contraction (rat caudal artery); stereoisomeric mixture of NRB = 132%.; Vasoconstriction: maximum contractile effect as a % of 90 mM KCl contraction (rat caudal artery; Table 7, compounds of formula (V)): ^aMaximum contractile effect as a % of 90 mM KCl contraction (rat caudal artery); stereoisomeric mixture of NRB = 132%.; No of deaths (Sprague Dawley rats [1]; [8]): 2/12; No of deaths (Sprague Dawley rats [1]; [9]): 5/12 |
| Cc1ccc(CC(=O)OCN2C(=O)C3C4C=C(C(O)(c5ccccc5)c5ccccn5)C(C4=C(c4ccccc4)c4ccccn4)C3C2=O)cc1 (stereo not drawn) [Compound 324, 5-(α-Hydroxy-α-2-pyridylbenzyl)-N-4-methylphenylacetoyloxymethyl-7-(α-2-pyridylbenzylidene)-5-norbornene-2,3-dicarboximide] | 17 | 5/12 | 17% | 60^d min | 15 | yes^h,i |  | mortality at 1 % (Sprague Dawley rats [2]; [10]): 100%; In vivo lethality (oral) (Sprague Dawley rats [3]; 20 mg/Kg): yes^h,i |
| CCc1ccc(C=CC(=O)OCCN2C(=O)C3C4C=C(C(O)(c5ccccc5)c5ccccn5)C(C4=C(c4ccccc4)c4ccccn4)C3C2=O)cc1 (stereo not drawn) [Compound 335, N-[2′-(4″-Ethylcinnamoyloxy)ethyl]-5-(α-hydroxy-α-2-pyridylbenzyl)-7-(α-2-pyridylbenzylidene)-5-norbornene-2,3-dicarboximide] | 19 | 7/12 | 19% | 90^e min | 15 | yes^h |  | mortality at 1 % (Sprague Dawley rats [2]; [10]): 100% |
| COc1ccc(C=CC(=O)OCCN2C(=O)C3C4C=C(C(O)(c5ccccc5)c5ccccn5)C(C4=C(c4ccccc4)c4ccccn4)C3C2=O)cc1 (stereo not drawn) [Compound 126, 5-(α-Hydroxy-α-2-pyridylbenzyl)-N-[2′-(4″-methoxycinnamoyloxy)ethyl]-7-(α-2-pyridylbenzylidene)-5-norbornene-2,3-dicarboximide] | 0 |  | 0% | 50^d min | 25 | yes^h,i |  | No of deaths (Sprague Dawley rats [1]; [8]): 8/11^b; No of deaths (Sprague Dawley rats [1]; [9]): 10/12; In vivo lethality (i.v.) (Sprague Dawley rats [4]): yes^f; mortality at 1 % (Sprague Dawley rats [2]; n = 6, male rats only, Table 10, read-out: No of deaths (converted)): 83.3%; In vivo lethality (oral) (Sprague Dawley rats [3]; 20 mg/Kg): yes^h,i |
| CC(=Cc1ccccc1)C(=O)OCCN1C(=O)C2C3C=C(C(O)(c4ccccc4)c4ccccn4)C(C3=C(c3ccccc3)c3ccccn3)C2C1=O (stereo not drawn) [Compound 121, 5-(α-Hydroxy-α-2-pyridylbenzyl)-N-2′-α-methylcinnamoyloxyethyl-7-(α-2-pyridylbenzylidene)-5-norbornene-2,3-dicarboximide] |  | 3/12 | 0% | not lethal | 20 |  |  | Vasoconstriction: maximum contractile effect as a % of 90 mM KCl contraction (rat caudal artery; Table 1, compound at 50 μM): 0%; % NRB released, Hydrolytic Stability (simulated gastric fluid) [5]: 0^c %; % NRB released, Rat Serum [6]: 19.1 ± 1.3%; No of deaths (Sprague Dawley rats [2]; n = 6, 3 male and 3 female rats, Table 11): 6/6 |
| O=C(C=Cc1ccccc1)OCN1C(=O)C2C3C=C(C(O)(c4ccccc4)c4ccccn4)C(C3=C(c3ccccc3)c3ccccn3)C2C1=O (stereo not drawn) [Compound 19, N-Cinnamoyloxymethyl-5-(α-hydroxy-α-2-pyridylbenzyl)-7-(α-2-pyridylbenzylidene)-5-norbornene-2,3-dicarboximide] | 0 |  | 0% | 90^d min | 20 | yes^h,i |  | No of deaths (Sprague Dawley rats [1]; [8]): 1/12; No of deaths (Sprague Dawley rats [1]; [9]): 2/12; In vivo lethality (i.v.) (Sprague Dawley rats [4]): yes^f; No of deaths (Sprague Dawley rats [2]; n = 6, male rats only, Table 10): 5/5^b; In vivo lethality (oral) (Sprague Dawley rats [3]; 20 mg/Kg): yes^h,i |
| O=C(CCc1ccccc1)OCN1C(=O)C2C3C=C(C(O)(c4ccccc4)c4ccccn4)C(C3=C(c3ccccc3)c3ccccn3)C2C1=O (stereo not drawn) [Compound 18, N-Dihydrocinnamoyloxymethyl-5-(α-hydroxy-α-2-pyridylbenzyl)-7-(α-2-pyridylbenzylidene)-5-norbornene-2,3-dicarboximide] | 13 |  | 13% |  |  |  | 89 to 94 |  |
| CC(C)(C)C(=O)OCN1C(=O)C2C3C=C(C(O)(c4ccccc4)c4ccccn4)C(C3=C(c3ccccc3)c3ccccn3)C2C1=O (stereo not drawn) [Compound 8, 5-(α-Hydroxy-α-2-pyridylbenzyl)-N-pivaloyloxymethyl-7-(α-2-pyridylbenzylidene)-5-norbornene-2,3-dicarboximide] | ≥ 132 |  | ≧132% |  |  |  | 95 to 98 |  |
| O=C(OCN1C(=O)C2C3C=C(C(O)(c4ccccc4)c4ccccn4)C(C3=C(c3ccccc3)c3ccccn3)C2C1=O)c1ccccc1 (stereo not drawn) [Compound 12, N-Benzoyloxymethyl-5-(α-hydroxy-α-2-pyridylbenzyl)-7-(α-2-pyridylbenzylidene)-5-norbornene-2,3-dicarboximide] | ≥ 132 |  | ≧132% |  |  |  | 94 to 96 |  |
| O=C(C=Cc1ccc([N+](=O)[O-])cc1)OCCN1C(=O)C2C3C=C(C(O)(c4ccccc4)c4ccccn4)C(C3=C(c3ccccc3)c3ccccn3)C2C1=O (stereo not drawn) [Compound 130, 5-(α-Hydroxy-α-2-pyridylbenzyl)-N-[2′-(4″-nitrocinnamoyloxy)ethyl]-7-(α-2-pyridylbenzylidene)-5-norbornene-2,3-dicarboximide] | 20 |  |  |  |  |  | 105 to 110 |  |
| COc1cccc(C(=O)OCN2C(=O)C3C4C=C(C(O)(c5ccccc5)c5ccccn5)C(C4=C(c4ccccc4)c4ccccn4)C3C2=O)c1 (stereo not drawn) [Compound 14, 5-(α-Hydroxy-α-2-pyridylbenzyl)-N-m-methoxybenzoyloxymethyl-7-(α-2-pyridylbenzylidene)-5-norbornene-2,3-dicarboximide] | 0 |  | 0% |  |  |  | 171 to 180 |  |
| COc1ccccc1C=CC(=O)OCCN1C(=O)C2C3C=C(C(O)(c4ccccc4)c4ccccn4)C(C3=C(c3ccccc3)c3ccccn3)C2C1=O (stereo not drawn) [Compound 124, 5-(α-Hydroxy-α-2-pyridylbenzyl)-N-[2′-(2″-methoxycinnamoyloxy)ethyl]-7-(α-2-pyridylbenzylidene)-5-norbornene-2,3-dicarboximide] | 23 |  |  |  |  |  | 101 to 108 |  |
